Laboratory results published in article PMC12977544, “Phenotypic high-throughput screening identifies modulators of gut microbial choline metabolism” (mBio, 2026).
Values after ≈ are worked out from the molar mass of the structure shown.

What was measured:
E. coli MS 200-1 = assay: MIC in MEGA medium; assay type: cell-based, Escherichia coli MS 200-1; conditions: Escherichia coli, MS2001; anaerobic, 37°C, 24 h, up to 200 µM
Protocol: (§1) For TMA inhibition assays, E. coli and P. mirabilis were grown in NCE medium supplemented with 20 mM choline chloride, A. hydrogenalis was grown in MEGA medium supplemented with 3 mM choline chloride, and C. sporogenes was grown in BHI medium supplemented with 20 mM of choline chloride to induce expression of the cut gene cluster. For MIC assays, all bacteria strains were grown in MEGA medium.

[1] = target: T1, purified CutC (choline trimethylamine-lyase) (Oleidesulfovibrio alaskensis, UniProt Q30W70); assay: In vitro CutC activity assay coupled to YADH/NADH (absorbance 340 nm); assay type: biochemical, Desulfovibrio desulfuricans G20; conditions: 5 nM CutC, 200 µM choline, 20°C, anaerobic
T1 construct: made in house
T1 sequence (Q30W70 53-846): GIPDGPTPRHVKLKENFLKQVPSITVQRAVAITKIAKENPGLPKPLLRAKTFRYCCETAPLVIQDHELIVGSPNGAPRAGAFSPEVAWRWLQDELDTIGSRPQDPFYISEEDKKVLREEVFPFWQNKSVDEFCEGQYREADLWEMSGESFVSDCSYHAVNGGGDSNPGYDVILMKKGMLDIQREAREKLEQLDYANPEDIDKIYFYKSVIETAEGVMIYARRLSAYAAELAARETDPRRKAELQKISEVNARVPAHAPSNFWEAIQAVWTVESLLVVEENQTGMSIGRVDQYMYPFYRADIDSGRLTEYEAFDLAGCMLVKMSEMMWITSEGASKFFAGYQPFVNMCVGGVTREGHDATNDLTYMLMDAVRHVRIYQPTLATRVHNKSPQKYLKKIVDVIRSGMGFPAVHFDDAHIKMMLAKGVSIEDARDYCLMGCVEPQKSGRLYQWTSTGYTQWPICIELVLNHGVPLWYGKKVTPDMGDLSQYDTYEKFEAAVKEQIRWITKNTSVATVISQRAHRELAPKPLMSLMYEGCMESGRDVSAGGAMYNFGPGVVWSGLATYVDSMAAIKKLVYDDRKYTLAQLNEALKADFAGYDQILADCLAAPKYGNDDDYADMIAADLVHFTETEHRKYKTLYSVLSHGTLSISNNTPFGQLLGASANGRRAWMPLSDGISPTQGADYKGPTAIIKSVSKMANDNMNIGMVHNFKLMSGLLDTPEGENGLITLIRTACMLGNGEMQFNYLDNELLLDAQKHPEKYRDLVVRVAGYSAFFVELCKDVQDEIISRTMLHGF
Protocol: To investigate if our compounds were inhibiting CutC directly, we tested their activity toward the purified enzyme. The activity of CutC was determined using a coupled enzyme assay, where the acetaldehyde product from the cleavage of choline to TMA is reduced to ethanol by yeast alcohol dehydrogenase (YADH) using nicotinamide adenine dinucleotide (NADH) as a cofactor. The consumption of NADH results in a change in absorption at 340 nm, and this rate of change of absorption was used to calculate the initial rates of reaction of CutC in the presence of varying concentrations of inhibitors ([14], [65]).
CutC and CutD enzymes from Desulfovibrio desulfuricans G20 were purified, CutC was activated by incubation with CutD, and the amount of glycyl radical installation was quantified as previously described ([15]). The IC50 of compounds was determined in an in vitro CutC activity assay, where CutC activity is coupled to the NADH-dependent enzymatic reduction of acetaldehyde by YADH ([15]). Briefly, assays were conducted in an anaerobic chamber (MBraun) under N2 atmosphere at 20°C. In 50 mM potassium phosphate buffer (pH 8.0, 50 mM KCl), 40 µM of CutD and 150 µM of sodium dithionite were incubated for 20 min before the addition of 200 µM of SAM and 20 µM of CutC monomer. The mixture was incubated for 1 h to activate the glycyl radical enzyme, after which the activated CutC mixture was diluted […] in 50 mM potassium phosphate buffer (pH 8.0, 50 mM KCl). A master mix containing 200 µM NADH, 0.4 µM YADH (Sigma), and the diluted CutC mixture (5 nM final concentration in assay) was prepared and aliquoted into 96-well plates (180 µL per well). Ten microliters of inhibitor or DMSO vehicle was added, followed by 10 µL of aqueous choline chloride solution (final concentration 200 µM). Absorbance was measured at 340 nm immediately after addition of all assay components, with measurements taken every 20 s for 10 min. Initial rates were calculated from absorbance measurements and fitted to Michaelis–Menten equation using nonlinear regression in GraphPad Prism 10 (v. 10.4.0). Background activity was subtracted using no substrate controls, and initial rates for each inhibitor concentration were normalized to no inhibitor controls. IC50 values were obtained by plotting normalized activity values against the logarithm of inhibitor concentration and fitting to a nonlinear regression model in GraphPad Prism 10 (v. 10.4.0).

[2] = system: Proteus mirabilis ATCC 29906; assay: MIC in MEGA medium; assay type: cell-based; conditions: Proteus mirabilis, ATCC29906; anaerobic, 37°C, 24 h, up to 200 µM; read-out: MIC in MEGA medium, P. mirabilis
Protocol: as §1

[3] = system: Anaerococcus hydrogenalis DSM 7454; assay: MIC in MEGA medium; assay type: cell-based; conditions: Anaerococcus hydrogenalis, DSM7454; anaerobic, 37°C, 24 h, up to 200 µM
Protocol: as §1

[4] = system: Clostridium sporogenes ATCC 15579; assay: MIC in MEGA medium; assay type: cell-based; conditions: Clostridium sporogenes, ATCC15579; anaerobic, 37°C, 24 h, up to 200 µM
Protocol: as §1

[5] = system: Collinsella aerofaciens ATCC 25986; assay: MIC in MEGA medium; assay type: cell-based; conditions: Collinsella aerofaciens, ATCC25986; anaerobic, 37°C, 24 h, up to 200 µM
Protocol: as §1

[6] = system: Bacteroides ovatus ATCC 8483; assay: MIC in MEGA medium; assay type: cell-based; conditions: Bacteroides ovatus, ATCC8483; anaerobic, 37°C, 24 h, up to 200 µM; read-out: MIC in MEGA medium, B. ovatus
Protocol: as §1

[7] = system: Eubacterium rectale ATCC 33656; assay: MIC in MEGA medium; assay type: cell-based; conditions: Agathobacter rectalis, ATCC33656; anaerobic, 37°C, 24 h, up to 200 µM; read-out: MIC in MEGA medium, E. rectale
Protocol: as §1

[8] = system: Bacteroides caccae ATCC 43185; assay: MIC in MEGA medium; assay type: cell-based; conditions: Bacteroides caccae, ATCC43185; anaerobic, 37°C, 24 h, up to 200 µM; read-out: MIC in MEGA medium, B. caccae
Protocol: as §1

[9] = system: panel of commensal bacterial strains; assay: MIC against panel of nine gut commensal bacteria; conditions: read-out: MICs against gut commensal panel

Question: For `Cc1ccc(-c2cc(C(=O)NCCCN3CCC(C)CC3)c(C)[nH]2)cc1C` [Compound 6], which MIC (E. coli MS 200-1) is on record?
Answer: > 200 µM

Question: And the IC50 [1]?
Answer: 48 µM

Question: And the MIC [2]?
Answer: > 200 µM

Question: What about the MIC [3] of the same compound?
Answer: 200 µM (≈ 73.5 µg/mL)

Question: And the MIC [4]?
Answer: > 200 µM

Question: What about the MIC [5] of the same compound?
Answer: > 200 µM

Question: What about the MIC [6] of the same compound?
Answer: > 200 µM

Question: And the MIC [7]?
Answer: 200 µM (≈ 73.5 µg/mL)

Question: What about the MIC [8] of the same compound?
Answer: > 200 µM

Question: For `Cc1ccc(-c2cc(C(=O)NCCCCCN3CCCCCC3)c(C)[nH]2)cc1C` [Compound 45], which MIC (E. coli MS 200-1) is on record?
Answer: > 200 µM

Question: What about the IC50 [1] of the same compound?
Answer: 17 µM

Question: And the MIC [2]?
Answer: > 200 µM

Question: What about the MIC [3] of the same compound?
Answer: > 200 µM

Question: And the MIC [4]?
Answer: > 200 µM

Question: What about the MIC [5] of the same compound?
Answer: > 200 µM

Question: What about the MIC [6] of the same compound?
Answer: > 200 µM

Question: And the MIC [7]?
Answer: > 200 µM

Question: What about the MIC [8] of the same compound?
Answer: > 200 µM

Question: And the MIC [9]?
Answer: > 200 µM
